Test systems include A549 NSCLC; UACC-257 melanoma; TK-10 renal; HL-60(TB) leukemia; ACHN renal; MDA-MB-231 breast; HOP-92 NSCLC; NCI-H226 lung; NCI-H23 lung; SK-MEL-5 melanoma.
Experiment in all cases: growth of human tumour cells (NCI), 48 h

Values joined by “and” are separate entries in the source; they are usually repeats but may differ in a detail not shown here. Identical values can stand only once.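 In this assay, cells in 96-well plates receive the compound at five concentrations for 48 hours. Endpoints are linearly interpolated between the surrounding concentrations. GI50: concentration for 50% inhibition of growth. TGI: total growth inhibition.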

`Brc1ccc(Nc2nc3ccccc3nc2Nc2ccc(Br)cc2)cc1`: the GI50 is 0.393 µM with A549 NSCLC; 2.01 µM with UACC-257 melanoma; 1.81 µM with TK-10 renal; 2.09 µM in the assay on HL-60(TB) leukemia; 0.583 µM with ACHN renal; 1.46 µM with MDA-MB-231 breast. The GI50 with HOP-92 NSCLC was 2.19 µM; with NCI-H226 lung, 2.75 µM; in the assay on NCI-H23 lung it was 1.32 µM; in the assay with SK-MEL-5 melanoma, 1.56 µM. The TGI turned out to be 11 µM with A549 NSCLC; 5.9 µM in the assay with UACC-257 melanoma; 6.6 µM in the assay on TK-10 renal; 5.96 µM in the assay on HL-60(TB) leukemia; 3.22 µM with ACHN renal; 3.01 µM with MDA-MB-231 breast. The TGI stood at 5.5 µM in the assay on HOP-92 NSCLC, 10.1 µM with NCI-H226 lung, 6.52 µM in the assay on NCI-H23 lung and 3.11 µM in the assay with SK-MEL-5 melanoma.

Turning to `O=c1[nH]c(F)nc2c1ncn2C1OC(CO)C(O)C1O` (centres undefined), the GI50 with A549 NSCLC, in the assay with UACC-257 melanoma, in the assay on HL-60(TB) leukemia, in the assay on ACHN renal, in the assay on MDA-MB-231 breast and with HOP-92 NSCLC was > 100 µM each time. Besides, the GI50 with NCI-H226 lung, with NCI-H23 lung and in the assay with SK-MEL-5 melanoma was > 100 µM each time. The TGI with A549 NSCLC, in the assay with UACC-257 melanoma, with HL-60(TB) leukemia, with ACHN renal, in the assay on MDA-MB-231 breast and in the assay on HOP-92 NSCLC was > 100 µM in each case. Also, the TGI in the assay with NCI-H226 lung, in the assay with NCI-H23 lung and in the assay with SK-MEL-5 melanoma was > 100 µM in each case.

With `Cn1c(=O)c2[nH]c(CCCc3ccc([N+](=O)[O-])cc3)nc2n(C)c1=O`, the TGI in the assay on A549 NSCLC, with UACC-257 melanoma, in the assay on TK-10 renal, in the assay on ACHN renal, in the assay with MDA-MB-231 breast and with HOP-92 NSCLC was > 100 µM throughout. For the same molecule, the TGI with NCI-H226 lung, in the assay on NCI-H23 lung and with SK-MEL-5 melanoma was > 100 µM each time.

Turning to `O=C1NC(=O)C(c2ccccc2)=C1Nc1ccccc1`, the GI50 in the assay on A549 NSCLC, in the assay with TK-10 renal, in the assay with HL-60(TB) leukemia, with ACHN renal, in the assay with MDA-MB-231 breast and in the assay on SK-MEL-5 melanoma was > 25 µM each time. The TGI with A549 NSCLC, in the assay with TK-10 renal, with HL-60(TB) leukemia, in the assay on ACHN renal, in the assay on MDA-MB-231 breast and with SK-MEL-5 melanoma was > 25 µM each time.

As to `COc1ccccc1NC(=O)C(=O)Cc1cnc2ccccc2n1`, the TGI in the assay on A549 NSCLC, in the assay with UACC-257 melanoma, with HL-60(TB) leukemia, with ACHN renal, with MDA-MB-231 breast and in the assay with HOP-92 NSCLC was > 100 µM in each case. For the same molecule, the TGI with NCI-H226 lung, in the assay with NCI-H23 lung and with SK-MEL-5 melanoma was > 100 µM each time.

Take `O=C(/C=C/c1nnc2n(Cc3ccccc3)c(=O)c3c4c(sc3n12)CCCC4)c1ccccc1`: the GI50 in the assay on TK-10 renal was 0.354 µM; with HL-60(TB) leukemia it was 0.407 µM and 0.332 µM; in the assay on ACHN renal, 3.9 µM; in the assay with MDA-MB-231 breast, 0.219 µM; in the assay on HOP-92 NSCLC it was 1.55 µM; in the assay with NCI-H23 lung, > 100 µM. The GI50 in the assay on SK-MEL-5 melanoma was > 100 µM. Further, the TGI is 1.38 µM in the assay with TK-10 renal; > 100 µM in the assay with HL-60(TB) leukemia; 0.55 µM with MDA-MB-231 breast; > 100 µM in the assay on HOP-92 NSCLC; > 100 µM with NCI-H23 lung; > 100 µM in the assay on SK-MEL-5 melanoma.

Turning to `Cc1ccc(NC(=O)c2nc(S(C)(=O)=O)oc2-c2ccc(F)cc2)cc1Nc1ccc2ncn(C)c(=O)c2c1`, the GI50 in the assay on A549 NSCLC is 13.9 µM; in the assay on UACC-257 melanoma it was 1.88 µM; in the assay on TK-10 renal, 1.83 µM; with HL-60(TB) leukemia, 2.11 µM; in the assay with ACHN renal, 1.62 µM; with MDA-MB-231 breast, 1.64 µM. The GI50 with HOP-92 NSCLC was 1.91 µM; with NCI-H226 lung, 2.33 µM; in the assay with NCI-H23 lung it was 2.79 µM. The TGI amounted to 29.5 µM with A549 NSCLC; 3.72 µM with UACC-257 melanoma; 3.25 µM in the assay on TK-10 renal; 5.2 µM with HL-60(TB) leukemia; 2.97 µM in the assay with ACHN renal; 3.15 µM in the assay on MDA-MB-231 breast. Further, the TGI stood at 3.87 µM in the assay on HOP-92 NSCLC, 5.52 µM in the assay with NCI-H226 lung and 9.19 µM with NCI-H23 lung.

For the molecule `O=C(O)CNCCc1ccccc1`, the TGI with A549 NSCLC, in the assay with TK-10 renal, in the assay on HL-60(TB) leukemia, in the assay with ACHN renal, in the assay with MDA-MB-231 breast and in the assay on HOP-92 NSCLC was > 100 µM in each case. Also, the TGI in the assay with NCI-H226 lung, in the assay with NCI-H23 lung and in the assay with SK-MEL-5 melanoma was > 100 µM throughout.

Turning to `N#Cc1c2ccccc2c2nnc3ccc(C(F)(F)F)cc3n12`, the GI50 in the assay on A549 NSCLC is 26.9 µM; in the assay with UACC-257 melanoma it was 21.2 µM; in the assay with TK-10 renal it was 23 µM; in the assay with HL-60(TB) leukemia it was 40 µM; in the assay with ACHN renal, 27.3 µM; with MDA-MB-231 breast it was 88.1 µM. Further, the results for the GI50 in the assay with HOP-92 NSCLC, with NCI-H23 lung and in the assay with SK-MEL-5 melanoma were 91.6 µM, 33.5 µM and 16.1 µM, respectively. For the same molecule, the TGI with A549 NSCLC was > 100 µM; in the assay with UACC-257 melanoma, 76.3 µM; in the assay on TK-10 renal it was > 100 µM; in the assay on HL-60(TB) leukemia, > 100 µM; in the assay with ACHN renal it was > 100 µM; with MDA-MB-231 breast it was > 100 µM. The TGI in the assay on HOP-92 NSCLC was > 100 µM; with NCI-H23 lung, > 100 µM; in the assay on SK-MEL-5 melanoma, 39.8 µM.

Consider `O=C(c1cccs1)c1nc2cc(Cl)ccc2[n+]([O-])c1C(F)(F)F`, for which the GI50 in the assay on A549 NSCLC was 54.8 µM; in the assay on UACC-257 melanoma, 49.9 µM; in the assay with TK-10 renal, > 100 µM; in the assay on HL-60(TB) leukemia it was > 100 µM; with ACHN renal, > 100 µM; with MDA-MB-231 breast it was > 100 µM. Besides, the GI50 in the assay on NCI-H226 lung is > 100 µM; in the assay on NCI-H23 lung it was > 100 µM; in the assay with SK-MEL-5 melanoma it was 45.4 µM. Further, the TGI with A549 NSCLC, in the assay with UACC-257 melanoma, with TK-10 renal, in the assay with HL-60(TB) leukemia, in the assay on ACHN renal and in the assay on MDA-MB-231 breast was > 100 µM throughout. In addition, the TGI in the assay with NCI-H226 lung, in the assay with NCI-H23 lung and in the assay on SK-MEL-5 melanoma was > 100 µM each time.

These data come from PubChem BioAssay (NCI).
